Experimental data published in US20260085062A1, “NOVEL COMPOUNDS AS CK2 INHIBITORS” (Cambridge Enterprise Limited, priority 2022, published 2026).

Tests used:
CK2α = target: T1, CK2α (Homo sapiens, UniProt P68400); test: Biochemical assay for inhibitors of CK2α kinase activity (ADP-Glo); conditions: 0.2 nM CK2α, 50 μM peptide substrate, 15 μM ATP, read-out: Assay 1: CK2α Enzyme IC50
T1 construct: CK2α (residues 2-329) was produced in Escherichia coli BL21 (DE3) for kinase activity screening; His6 (N, cleaved yes); made in house; host or cells: Escherichia coli BL21 (DE3)
T1 sequence (P68400 2-329): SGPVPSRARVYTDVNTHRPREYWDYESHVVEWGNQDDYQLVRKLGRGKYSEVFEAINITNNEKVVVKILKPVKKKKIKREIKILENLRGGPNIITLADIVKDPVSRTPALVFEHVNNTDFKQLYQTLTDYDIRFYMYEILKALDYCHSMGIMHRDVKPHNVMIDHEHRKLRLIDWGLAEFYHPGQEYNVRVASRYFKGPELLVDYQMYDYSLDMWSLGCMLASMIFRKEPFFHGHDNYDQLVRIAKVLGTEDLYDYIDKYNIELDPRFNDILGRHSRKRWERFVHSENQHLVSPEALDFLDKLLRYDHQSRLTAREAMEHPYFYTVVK

CLK2 = target: T2, CLK2 (Homo sapiens, UniProt P49760); test: Biochemical assay for inhibitors of CLK2 kinase activity (ADP-Glo); conditions: 20 nM CLK2, 50 μM peptide substrate, 100 μM ATP, read-out: Assay 2: CLK2 Enzyme IC50
T2 construct: purchased Carna Biosciences 04-127
T2 sequence (P49760 whole entry): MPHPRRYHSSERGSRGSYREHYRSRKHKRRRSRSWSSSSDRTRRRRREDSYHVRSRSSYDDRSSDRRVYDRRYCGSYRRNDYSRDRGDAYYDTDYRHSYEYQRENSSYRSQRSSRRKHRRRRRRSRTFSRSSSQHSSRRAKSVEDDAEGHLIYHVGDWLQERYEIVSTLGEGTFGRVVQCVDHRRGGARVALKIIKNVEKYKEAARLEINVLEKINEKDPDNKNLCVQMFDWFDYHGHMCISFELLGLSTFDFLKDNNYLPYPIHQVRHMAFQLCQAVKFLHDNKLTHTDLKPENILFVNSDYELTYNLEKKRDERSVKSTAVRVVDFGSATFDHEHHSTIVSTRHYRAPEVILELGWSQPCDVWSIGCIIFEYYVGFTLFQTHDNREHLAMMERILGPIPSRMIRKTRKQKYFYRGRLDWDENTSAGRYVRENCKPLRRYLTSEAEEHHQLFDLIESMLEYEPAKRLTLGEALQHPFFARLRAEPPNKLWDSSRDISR

intracellular CK2α = target: T3, intracellular CK2α (Homo sapiens, UniProt P19784); test: Cell-based NanoBRET assay for inhibitor binding to intracellular CK2α; conditions: HCT116 cells transiently transfected with CSNK2A2-NanoLuc fusion vector; Tracer K-5; 2 h; read-out: Assay 3: NanoBRET ™ assay for binding to intracellular CK2α
T3 construct: host or cells: HCT116 (ATCC CCL-247)
T3 sequence (P19784 whole entry, the tested form may be a part): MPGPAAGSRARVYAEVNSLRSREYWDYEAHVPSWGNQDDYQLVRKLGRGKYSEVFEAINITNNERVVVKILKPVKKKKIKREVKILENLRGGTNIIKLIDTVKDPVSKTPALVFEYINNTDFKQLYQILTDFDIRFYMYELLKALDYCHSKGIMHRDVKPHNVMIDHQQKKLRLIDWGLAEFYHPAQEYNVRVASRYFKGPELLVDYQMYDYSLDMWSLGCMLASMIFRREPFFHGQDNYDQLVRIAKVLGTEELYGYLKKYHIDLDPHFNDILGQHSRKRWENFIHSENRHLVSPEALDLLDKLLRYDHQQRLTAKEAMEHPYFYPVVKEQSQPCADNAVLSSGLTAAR
Procedure, shortened: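 Living cells expressing NanoLuc-CK2α fusion were given a fixed tracer concentration, and compounds competitively displaced the reversibly bound tracer. Donor (450 nm) and acceptor (610 or 630 nm) emissions were read; BRET ratio = (acceptor/donor)×1,000, giving apparent intracellular affinity.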

| SMILES | IC50 (CK2α) | IC50 (CLK2) | IC50 (intracellular CK2α) |
| --- | --- | --- | --- |
| N#Cc1cc(-c2cc(NCCCNC(=O)CCNCc3ccc(-c4ccccc4)c(Cl)c3)c3cn[nH]c3c2)ccn1 [Example 74, 3-(((2-chloro-[1,1′-biphenyl]-4-yl)methyl)amino)-N-(3-((6-(2-cyanopyridin-4-yl)-1H-indazol-4-yl)amino)propyl)propanamide] | 19.7 nM | 10000 nM | 2130 nM |
| O=C(CCNCc1ccc(-c2ccccc2)c(Cl)c1)NCCCNc1cc(-c2ccncn2)cc2[nH]ncc12 [Example 75, 3-(((2-chloro-[1,1′-biphenyl]-4-yl)methyl)amino)-N-(3-((6-(pyrimidin-4-yl)-1H-indazol-4-yl)amino)propyl)propanamide] | 0.89 nM | 404 nM | 76.5 nM |
| COc1n[nH]cc1-c1cc(NCCCNC(=O)CCNCc2ccc(-c3ccccc3)c(Cl)c2)c2cn[nH]c2c1 [Example 76, 3-(((2-chloro-[1,1′-biphenyl]-4-yl)methyl)amino)-N-(3-((6-(3-methoxy-1H-pyrazol-4-yl)-1H-indazol-4-yl)amino)propyl)propanamide] | 2.64 nM | 18.6 nM | 735 nM |
| O=C(CCNCc1ccc(C2CC2)c(CO)c1)NCCCNc1cc(-n2cnnc2)cc2[nH]ncc12 [Example 77, N-(3-((6-(4H-1,2,4-triazol-4-yl)-1H-indazol-4-yl)amino)propyl)-3-((4-cyclopropyl-3-(hydroxymethyl)benzyl)amino)propanamide] | 5.71 nM | 95.7 nM | > 50000 nM |
| O=C(CCNCc1ccc(-c2ccccc2)c(Cl)c1)NCCCNc1cc(N2CCOCC2)cc2[nH]ncc12 [Example 78, 3-(((2-chloro-[1,1′-biphenyl]-4-yl)methyl)amino)-N-(3-((6-morpholino-1H-indazol-4-yl)amino)propyl)propanamide] | 472 nM | > 50000 nM | > 50000 nM |
| O=C(CCNCc1ccc(-c2ccccc2)c(Cl)c1)NCCCNc1cc(-c2nn[nH]n2)cc2[nH]ncc12 [Example 79, N-(3-((6-(2H-tetrazol-5-yl)-1H-indazol-4-yl)amino)propyl)-3-(((2-chloro-[1,1′-biphenyl]-4-yl)methyl)amino)propanamide] | 0.33 nM | 407 nM | 5090 nM |
| Cc1nccn1-c1cc(NCCCNC(=O)CCNCc2ccc(-c3ccccc3)c(Cl)c2)c2cn[nH]c2c1 [Example 80, 3-(((2-chloro-[1,1′-biphenyl]-4-yl)methyl)amino)-N-(3-((6-(2-methyl-1H-imidazol-1-yl)-1H-indazol-4-yl)amino)propyl)propanamide] | 46.7 nM | 1920 nM | 8050 nM |
| O=C(CCNCc1ccc(-c2ccccc2)c(Cl)c1)NCCCNc1cc(C2COC2)cc2[nH]ncc12 [Example 81, 3-(((2-chloro-[1,1′-biphenyl]-4-yl)methyl)amino)-N-(3-((6-(oxetan-3-yl)-1H-indazol-4-yl)amino)propyl)propanamide] | 7.49 nM | 684 nM | 808 nM |
| O=C(CCNCc1ccc(-c2ccccc2)c(Cl)c1)NCCCNc1cc(C2CCOC2)cc2[nH]ncc12 (stereo not drawn) [Example 82, 3-(((2-chloro-[1,1′-biphenyl]-4-yl)methyl)amino)-N-(3-((6-(tetrahydrofuran-3-yl)-1H-indazol-4-yl)amino)propyl)propanamide] | 23.3 nM | 1870 nM | 2120 nM |
| O=C(CCNCc1ccc(OC(F)(F)F)c(Cl)c1)NCCCNc1cc(-n2cnnc2)cc2cn[nH]c12 [Example 83, N-(3-((5-(4H-1,2,4-triazol-4-yl)-1H-indazol-7-yl)amino)propyl)-3-((3-chloro-4-(trifluoromethoxy)benzyl)amino)propanamide] | 2.56 nM | 1090 nM | 2260 nM |
| COC(=O)c1cc(NCCOCCCCNCc2cc3cc(C(F)(F)F)ccc3[nH]2)c2cn[nH]c2c1 [Example 84, methyl4-((2-(4-(((5-(trifluoromethyl)-1H-indol-2-yl)methyl)amino)butoxy)ethyl)amino)-1H-indazole-6-carboxylate] | 395 nM | 10500 nM | 36500 nM |
| O=C(O)c1cc(NCCOCCCCNCc2cc3cc(C(F)(F)F)ccc3[nH]2)c2cn[nH]c2c1 [Example 85, 4-((2-(4-(((5-(trifluoromethyl)-1H-indol-2-yl)methyl)amino)butoxy)ethyl)amino)-1H-indazole-6-carboxylic acid] | 743 nM | 37100 nM | > 50000 nM |
| Cc1nncn1-c1cc(NCCOCCCCNCc2cc3cc(C(F)(F)F)ccc3[nH]2)c2cn[nH]c2c1 [Example 86, 6-(3-methyl-4H-1,2,4-triazol-4-yl)-N-(2-(4-(((5-(trifluoromethyl)-1H-indol-2-yl)methyl)amino)butoxy)ethyl)-1H-indazol-4-amine] | 6.36 nM | 1670 nM | 1350 nM |
| COc1cc(-c2cc(NCCOCCCCNCc3cc4cc(C(F)(F)F)ccc4[nH]3)c3cn[nH]c3c2)ccn1 [Example 87, 6-(2-methoxypyridin-4-yl)-N-(2-(4-(((5-(trifluoromethyl)-1H-indol-2-yl)methyl)amino)butoxy)ethyl)-1H-indazol-4-amine] | 12.3 nM | 1760 nM | 1300 nM |
| COC(=O)CCc1cc(NCCOCCCCNCc2cc3cc(C(F)(F)F)ccc3[nH]2)c2cn[nH]c2c1 [Example 88, methyl 3-(4-((2-(4-(((5-(trifluoromethyl)-1H-indol-2-yl)methyl)amino)butoxy)ethyl)amino)-1H-indazol-6-yl)propanoate] | > 1000 nM | 41300 nM | > 50000 nM |
| O=C(O)CCc1cc(NCCOCCCCNCc2cc3cc(C(F)(F)F)ccc3[nH]2)c2cn[nH]c2c1 [Example 89, 3-(4-((2-(4-(((5-(trifluoromethyl)-1H-indol-2-yl)methyl)amino)butoxy)ethyl)amino)-1H-indazol-6-yl)propanoic acid] | > 1000 nM | 18400 nM | > 50000 nM |
| O=C(CCNCc1ccc(-c2ccccc2)c(Cl)c1)NCCCNc1cc(C2CCOCC2)cc2[nH]ncc12 [Example 90, 3-(((2-chloro-[1,1′-biphenyl]-4-yl)methyl)amino)-N-(3-((6-(tetrahydro-2H-pyran-4-yl)-1H-indazol-4-yl)amino)propyl)propanamide] | 212 nM | 8780 nM | 10600 nM |
| Cc1nc[nH]c1-c1cc(NCCCNC(=O)CCNCc2ccc(-c3ccccc3)c(Cl)c2)c2cn[nH]c2c1 [Example 91, 3-(((2-chloro-[1,1′-biphenyl]-4-yl)methyl)amino)-N-(3-((6-(4-methyl-1H-imidazol-5-yl)-1H-indazol-4-yl)amino)propyl)propanamide] | 4.17 nM | 979 nM | 4590 nM |
| COc1n[nH]cc1-c1cc(NCCOCCCCNCc2cc3cc(C(F)(F)F)ccc3[nH]2)c2cn[nH]c2c1 [Example 92, 6-(3-methoxy-1H-pyrazol-4-yl)-N-(2-(4-(((5-(trifluoromethyl)-1H-indol-2-yl)methyl)amino)butoxy)ethyl)-1H-indazol-4-amine] | 19.1 nM | 24.1 nM | 1780 nM |
| FC(F)(F)c1ccc2[nH]c(CNCCCCOCCNc3cc(-c4ccnnc4)cc4[nH]ncc34)cc2c1 [Example 93, 6-(pyridazin-4-yl)-N-(2-(4-(((5-(trifluoromethyl)-1H-indol-2-yl)methyl)amino)butoxy)ethyl)-1H-indazol-4-amine] | 0.77 nM | 569 nM | 180 nM |
| FC(F)(F)c1ccc2[nH]c(CNCCCCOCCNc3cccc4[nH]ncc34)cc2c1 [Example 94] | 203 nM | 5790 nM | 29300 nM |
| FC(F)(F)c1ccc2[nH]c(CNCCCCOCCNc3cc(-c4ccncn4)cc4[nH]ncc34)cc2c1 [Example 95, 6-(pyrimidin-4-yl)-N-(2-(4-(((5-(trifluoromethyl)-1H-indol-2-yl)methyl)amino)butoxy)ethyl)-1H-indazol-4-amine] | 6.56 nM | 203 nM | 336 nM |
| N#Cc1cc(NCCOCCCCNCc2cc3cc(C(F)(F)F)ccc3[nH]2)c2cn[nH]c2c1 [Example 96, 4-((2-(4-(((5-(trifluoromethyl)-1H-indol-2-yl)methyl)amino)butoxy)ethyl)amino)-1H-indazole-6-carbonitrile] | 27 nM | 227 nM | 2000 nM |
| FC(F)(F)c1ccc2[nH]c(CNCCCCOCCNc3cc(-c4cnoc4)cc4[nH]ncc34)cc2c1 [Example 97, 6-(isoxazol-4-yl)-N-(2-(4-(((5-(trifluoromethyl)-1H-indol-2-yl)methyl)amino)butoxy)ethyl)-1H-indazol-4-amine] | 1.42 nM | 104 nM | 321 nM |
| c1cc2[nH]c(CNCCCCOCCNc3cc(-c4cnoc4)cc4[nH]ncc34)cc2cc1OC1CCC1 [Example 98, N-(2-(4-(((5-cyclobutoxy-1H-indol-2-yl)methyl)amino)butoxy)ethyl)-6-(isoxazol-4-yl)-1H-indazol-4-amine] | 0.82 nM | 122 nM | 105 nM |
